Laboratory results as given in US20250230138A1, “COMPOUNDS HAVING A T-STRUCTURE FORMED BY AT LEAST FOUR CYCLES FOR USE IN THE TREATMENT OF CANCER AND OTHER INDICATIONS” (TheRas, Inc., priority 2022, published 2025).
Like-named read-outs stand apart in the source and are kept apart here.

Legend:
[1] = biological target: Cys242 in human PIK3CA (157-299) (Homo sapiens (Human), UniProt P42336); assay: Covalent modification assay using MALDI-TOF MS; format: biochemical; conditions: 4 h reaction time point
Chain of Cys242 in human PIK3CA (157-299) (P42336 157-299): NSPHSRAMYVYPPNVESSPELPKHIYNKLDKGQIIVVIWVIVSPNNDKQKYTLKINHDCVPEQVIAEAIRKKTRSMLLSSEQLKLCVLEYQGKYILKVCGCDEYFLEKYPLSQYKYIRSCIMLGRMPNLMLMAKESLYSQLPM
Outline: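 Covalent adduct formation was read by linear-mode MALDI-TOF with sinapinic acid matrix, reported as modified-protein peak height divided by total protein peak heights. Reactions held PIK3CA (157-299) at 1 or 3.33 μM in HEPES/NaCl/MgCl2 buffer, pH 7.3, sampled after 15 min to 4 h at room temperature.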

[2] = system: pAKT in BT474 cells; assay: Cell-based pAKT HTRF assay in BT474 cells; conditions: BT474 cells, 4 hr incubation, read-out: pAKT inhibition IC50 in BT474 cells
Outline: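 BT474 cells in DMEM/10% FBS were treated the day after seeding with a 9-point, 3-fold compound series from 3 μM (0.25% DMSO) for 4 hr. Lysates were mixed with d2 and Eu cryptate anti-pAKT antibodies and incubated 4-24 h at room temperature. HTRF was read with excitation at 320 nm and emission at 615 nm.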

[3] = 3.33 μM protein target, 1:7.5 protein to compound ratio (compounds 1-852)
[4] = Homo sapiens, BT-474, Compounds 10-999
[5] = 1 μM protein target, 1:5 protein to compound ratio (compounds 853-1279)

Row | IC50 [2, 4] | IC50 ([2]; Compounds 10-999) | IC50 ([2]; Compounds 1000-1279) | SMILES | % of modification [1, 3] | % of modification [1, 5]
1 | < 100 nM | – | – | C=CC(=O)N1Cc2cc(-c3nc(-c4ccc5c(c4)CCN(C)C5)c4ccsc4c3-c3c(F)cc(F)cc3OC(CF)CF)nn2C[C@H]1C [Compound 634, 1-[(6R)-2-[7-[2,4-difluoro-6-[2-fluoro-1-(fluoromethyl)ethoxy]phenyl]-4-(2-methyl-3,4-dihydro-1H-isoquinolin-6-yl)thieno[3,2-c]pyridin-6-yl]-6-methyl-6,7-dihydro-4H-pyrazolo[1,5-a]pyrazin-5-yl]prop-2-en-1-one] | A (percent of modification of PIK3CA protein ≥75%) | –
2 | < 100 nM | – | – | C=C(F)C(=O)N1CCn2nc(-c3nc(-c4ccc5c(c4)CCNC5=O)c4ccsc4c3-c3ccc(F)cc3OC(C)C)cc2C1 [Compound 258, 6-[7-(4-fluoro-2-isopropoxy-phenyl)-6-[5-(2-fluoroprop-2-enoyl)-6,7-dihydro-4H-pyrazolo[1,5-a]pyrazin-2-yl]thieno[3,2-c]pyridin-4-yl]-3,4-dihydro-2H-isoquinolin-1-one] | B (50%<percent of modification <75%) | –
3 | – | 100 to 1000 nM | – | C=CC(=O)N1CCc2ncc(-c3nc(N4CCN(C(C)C)CC4)c4ccsc4c3-c3c(F)cc(F)cc3OC(C)C)cc2C1 [Compound 373] | A (percent of modification of PIK3CA protein ≥75%) | –
4 | – | < 100 nM | – | C=CC(=O)N1Cc2cc(-c3nc(-c4cnc(C)nc4)c4ccsc4c3-c3c(F)cc(F)cc3OCCO)nn2CC1C (centres unmarked) [Compound 831] | A (percent of modification of PIK3CA protein ≥75%) | –
5 | 100 to 1000 nM | – | – | C=CC(=O)N1CC(n2cc(-c3nc(-c4ccc5c(c4)CCNC5)c4ncsc4c3-c3ccc(F)cc3OC)cn2)C1 [Compound 104, 1-[3-[4-[7-(4-fluoro-2-methoxy-phenyl)-4-(1,2,3,4-tetrahydroisoquinolin-6-yl)thiazolo[4,5-c]pyridin-6-yl]pyrazol-1-yl]azetidin-1-yl]prop-2-en-1-one] | A (percent of modification of PIK3CA protein ≥75%) | –
6 | – | < 100 nM | – | C=CC(=O)N1Cc2cc(-c3nc(-c4ccc5ncn(C)c(=O)c5c4)c4ccsc4c3-c3c(F)cc(F)cc3OCCOC)nn2C[C@H]1C [Compound 842] | A (percent of modification of PIK3CA protein ≥75%) | –
7 | < 100 nM | – | – | C=CC(=O)N1CCc2nc(-c3nc(-c4cnn(C)c4)c4ccsc4c3-c3ccc(F)cc3OCC3CCNC(=O)C3)sc2C1 (centres unmarked) [Compound 144, 4-[[5-fluoro-2-[4-(1-methylpyrazol-4-yl)-6-(5-prop-2-enoyl-6,7-dihydro-4H-thiazolo[5,4-c]pyridin-2-yl)thieno[3,2-c]pyridin-7-yl]phenoxy]methyl]piperidin-2-one] | A (percent of modification of PIK3CA protein ≥75%) | –
8 | – | < 100 nM | – | C=CC(=O)N1CCn2nc(-c3nc(-c4ccc5ncn(C)c5c4)c4ccsc4c3-c3c(F)cc(F)cc3OC[C@@H](C)O)cc2[C@@H]1C [Compound 647] | A (percent of modification of PIK3CA protein ≥75%) | –
9 | – | < 100 nM | – | C=CC(=O)N1CCc2ncc(-c3nc(-c4cnc(C)s4)c4ccsc4c3-c3c(F)cc(F)cc3OC(C)C)cc2C1 [Compound 392] | A (percent of modification of PIK3CA protein ≥75%) | –
10 | – | < 100 nM | – | C=CC(=O)N1CCn2nc(-c3nc(-c4ccnc(N(C)C)c4)c4ccsc4c3-c3c(F)cc(F)cc3OCCO)cc2C1C (centres unmarked) [Compound 959] | – | A (percent of modification of PIK3CA protein ≥75%)
11 | – | < 100 nM | – | C=CC(=O)N1CCn2nc(-c3nc(-c4ccc5c(cnn5C)c4)c4ccsc4c3-c3c(F)cc(F)cc3OC[C@@H](C)O)cc2[C@@H]1C [Compound 671] | A (percent of modification of PIK3CA protein ≥75%) | –
12 | – | < 100 nM | – | C=CC(=O)N1CCn2nc(-c3nc(-c4cn(C)cn4)c4ccsc4c3-c3c(F)cc(F)cc3OCCO)cc2[C@@H]1C [Compound 781] | A (percent of modification of PIK3CA protein ≥75%) | –
13 | – | – | 100 to 1000 nM | C=CC(=O)N1CCn2nc(-c3nc(-c4ccc(C(=O)NCC5CN(C)C5)cc4)c4ccsc4c3-c3c(F)cc(F)cc3OCCOC)cc2C1C (centres unmarked) [Compound 1190] | – | A (percent of modification of PIK3CA protein ≥75%)
14 | – | < 100 nM | – | C=CC(=O)N1CCn2nc(-c3nc(-c4ccc5ncn(C)c5c4)c4ccsc4c3-c3c(F)cc(F)cc3OC[C@@H](C)O)cc2[C@H]1C [Compound 748] | A (percent of modification of PIK3CA protein ≥75%) | –
15 | – | < 100 nM | – | C=CC(=O)N1CCc2nc(-c3nc(-c4cnc5c(c4)CN(C)CC5)c4ccsc4c3-c3c(F)cc(F)cc3OC(C)C)sc2C1 [Compound 309] | A (percent of modification of PIK3CA protein ≥75%) | –
16 | – | < 100 nM | – | C=CC(=O)N1CCn2nc(-c3nc(-c4ccc5c(c4)CNC5=O)c4ccsc4c3-c3c(F)cc(F)cc3OCCOC)cc2[C@@H]1C [Compound 545] | A (percent of modification of PIK3CA protein ≥75%) | –
17 | < 100 nM | – | – | C=CC(=O)N1CCc2ccc(-c3nc(-c4ccc5c(c4)CNC5=O)c4ccsc4c3-c3c(F)cc(F)cc3OC(C)C)nc2C1 [Compound 411, 5-[7-(2,4-difluoro-6-isopropoxy-phenyl)-6-(7-prop-2-enoyl-6,8-dihydro-5H-1,7-naphthyridin-2-yl)thieno[3,2-c]pyridin-4-yl]isoindolin-1-one] | A (percent of modification of PIK3CA protein ≥75%) | –
18 | > 3000 nM | – | – | C=CC(=O)N1CCc2ncc(-c3nc(-c4cnn(C)c4)c(C(F)(F)F)cc3-c3ccc(F)cc3OC(C)C)cc2C1 [Compound 360, 1-[3-[3-(4-fluoro-2-isopropoxy-phenyl)-6-(1-methylpyrazol-4-yl)-5-(trifluoromethyl)-2-pyridyl]-7,8-dihydro-5H-1,6-naphthyridin-6-yl]prop-2-en-1-one] | B (50%<percent of modification <75%) | –
19 | – | 100 to 1000 nM | – | C=C(F)C(=O)N1CCn2nc(-c3nc(-c4ccc(=O)n(C)c4)c4ccsc4c3-c3ccc(F)cc3OCCOC)cc2C1 [Compound 278] | B (50%<percent of modification <75%) | –
20 | – | – | > 1000 nM | C=CC(=O)N1CCc2nc(-c3nc(-c4ccc5c(c4)CNC5=O)c4ccsc4c3-c3c(F)cc(F)cc3OCCO)sc2C1 (single isomer, unassigned) [Compound 1033] | – | D (percent of modification <25%)
21 | – | – | < 100 nM | C=CC(=O)N1CCn2nc(-c3nc(-c4ccc5c(c4)C4(CC4)CN(C)C5)c4ccsc4c3-c3c(F)cc(F)cc3OCCO)cc2C1C (centres unmarked) [Compound 1197] | – | A (percent of modification of PIK3CA protein ≥75%)
22 | – | < 100 nM | – | C=CC(=O)N1CCn2nc(-c3nc(-c4cnn(C)c4)c4ccsc4c3-c3c(F)cc(F)cc3OC(C)C)cc2C1 [Compound 289] | A (percent of modification of PIK3CA protein ≥75%) | –
23 | – | – | < 100 nM | C=CC(=O)N1CCc2cc(-c3nc(-c4ccc5c(c4)C(=O)NC5)c4ccsc4c3-c3c(F)cc(F)cc3OCCOC)nn2CC1 [Compound 1025] | – | A (percent of modification of PIK3CA protein ≥75%)
24 | – | < 100 nM | – | C=CC(=O)N1CCn2nc(-c3nc(-c4ccc5c(c4)CNC5=O)c4ccsc4c3-c3c(F)cc(F)cc3OCCO)cc2C1C (centres unmarked) [Compound 891] | – | A (percent of modification of PIK3CA protein ≥75%)
25 | – | < 100 nM | – | C=CC(=O)N1CCn2nc(-c3nc(-c4ccc5c(c4)CCN(C(C)C)C5)c4ccsc4c3-c3ccc(F)cc3OC(F)F)nc2C1 [Compound 218] | A (percent of modification of PIK3CA protein ≥75%) | –
